Molecules are shown by their SMILES. Activity calls are given as the source filed them. The rule behind the calls is not given here.

In assay [1] the test system is EMT6. Description: In vitro phototoxicity in EMT-6 cells at 1 uM after 24 hr r MTT assay; Not active. The assay is classed as functional, cell-based. As to conditions: Mus musculus, tested as the Zn salt or complex.
The test system of assay [2] is EMT6. Description: In vitro phototoxicity in EMT-6 cells at 1 uM after 6 hr MTT assay; Not active. Conditions: Mus musculus, tested as the Zn salt or complex. Type of assay: functional, cell-based.
Assay [3] concerns the target Estrogen receptor (Homo sapiens) (UniProt Q92731+P03372). Kind of assay: Displacement of [3H]estradiol from estrogen receptor. Type of assay: protein assay. As to conditions: tested as the Zn salt or complex.
In assay [4] the test system is EMT6. Kind of assay: In vitro phototoxicity in EMT-6 cells at 1 uM after 24 hr r MTT assay. Type of assay: functional, Mus musculus.
For assay [5], the system named is EMT6. Description: In vitro phototoxicity in EMT-6 cells at 1 uM after 6 hr MTT assay. Type of assay: functional, Mus musculus.

With `CCCCc1ccc2cc3c(cc2c1)-c1nc-3nc2[nH]c(nc3nc(nc4[nH]c(n1)c1cc5ccc(CCCC)cc5cc41)-c1ccc(C#C[C@@]4(O)CC[C@H]5[C@@H]6CCc7cc(O)ccc7[C@H]6CC[C@@]54C)cc1-3)c1cc3ccc(CCCC)cc3cc21`, the LD90 result with EMT6 [1] and in the assay on EMT6 [2] was “inactive” in each case. Also, the relative binding affinity (RBA) in assay [3] stood at 10.4.

Take `C[C@]12CC[C@@H]3c4ccc(O)cc4CC[C@H]3[C@@H]1CC[C@]2(O)C#Cc1cccc2cc3c(cc12)-c1nc-3nc2[nH]c(nc3nc(nc4[nH]c(n1)c1ccc(S(=O)(=O)[O-])cc41)-c1ccc(S(=O)(=O)[O-])cc1-3)c1cc(S(=O)(=O)[O-])ccc21.[Na+].[Na+].[Na+].[Zn]`: the LD90 with EMT6 [4] came out at 3 J cm**-2; in the assay on EMT6 [5] it was 12 J cm**-2. For the same compound, the relative binding affinity (RBA) in assay [3] is 1.24.

In the case of `C[C@]12CC[C@@H]3c4ccc(O)cc4CC[C@H]3[C@@H]1CC[C@]2(O)c1cccc(C#CC#Cc2ccc3c(c2)-c2nc-3nc3[nH]c(nc4nc(nc5[nH]c(n2)c2ccc(S(=O)(=O)[O-])cc52)-c2ccc(S(=O)(=O)[O-])cc2-4)c2ccc(S(=O)(=O)[O-])cc32)c1.[Na+].[Na+].[Na+].[Zn]`, the LD90 in the assay on EMT6 [4] was found to be 4 J cm**-2; in the assay on EMT6 [5], 10.4 J cm**-2. Further, the relative binding affinity (RBA) in assay [3] was 0.3.

As for `CCCCc1ccc2c(c1)-c1nc-2nc2[nH]c(nc3nc(nc4[nH]c(n1)c1ccc(CCCC)cc41)-c1ccc(C#CC#CCCCC[C@@]4(O)CC[C@H]5[C@@H]6CCc7cc(O)ccc7[C@H]6CC[C@@]54C)cc1-3)c1ccc(CCCC)cc21`, the LD90 entry in the assay with EMT6 [1] and in the assay on EMT6 [2] was “inactive” in each case. For the same compound, the relative binding affinity (RBA) in assay [3] turned out to be 3.08.

In the case of `CCCCc1ccc2c(c1)-c1nc-2nc2[nH]c(nc3nc(nc4[nH]c(n1)c1ccc(CCCC)cc41)-c1cccc(C#C[C@@]4(O)CC[C@H]5[C@@H]6CCc7cc(O)ccc7[C@H]6CC[C@@]54C)c1-3)c1ccc(CCCC)cc21`, the LD90 entry with EMT6 [1] and with EMT6 [2] was “inactive” each time. For the same compound, the relative binding affinity (RBA) in assay [3] was 12.9.

Consider `C[C@]12CC[C@@H]3c4ccc(O)cc4CC[C@H]3[C@@H]1CC[C@]2(O)CCCCC#CC#Cc1cccc2c1-c1nc-2nc2[nH]c(nc3nc(nc4[nH]c(n1)c1ccc(S(=O)(=O)[O-])cc41)-c1ccc(S(=O)(=O)[O-])cc1-3)c1ccc(S(=O)(=O)[O-])cc21.[Na+].[Na+].[Na+].[Zn]`, for which the values for the LD90 with EMT6 [4] and in the assay on EMT6 [5] were 4.3 J cm**-2 and 12 J cm**-2, respectively. Besides, in assay [3], the relative binding affinity (RBA) was 0.56.

Regarding `C[C@]12CC[C@@H]3c4ccc(O)cc4CC[C@H]3[C@@H]1CC[C@]2(O)C#Cc1ccc2c(c1)-c1nc-2nc2[nH]c(nc3nc(nc4[nH]c(n1)c1ccc(S(=O)(=O)[O-])cc41)-c1ccc(S(=O)(=O)[O-])cc1-3)c1cc(S(=O)(=O)[O-])ccc21.[Na+].[Na+].[Na+].[Zn]`, the LD90 in the assay on EMT6 [4] came to 5.1 J cm**-2; in the assay on EMT6 [5], 7 J cm**-2. Moreover, the relative binding affinity (RBA) in assay [3] amounted to 1.64.

On to `CCCCc1ccc2c(c1)-c1nc-2nc2[nH]c(nc3nc(nc4[nH]c(n1)c1ccc(CCCC)cc41)-c1ccc(C#C[C@@]4(O)CC[C@H]5[C@@H]6CCc7cc(O)ccc7[C@H]6CC[C@@]54C)cc1-3)c1ccc(CCCC)cc21`, for which the LD90 result in the assay with EMT6 [1] and in the assay with EMT6 [2] was “inactive” in each case. Further, the relative binding affinity (RBA) in assay [3] stood at 1.35.

On to `C[C@]12CC[C@@H]3c4ccc(O)cc4CC[C@H]3[C@@H]1CC[C@]2(O)c1ccc(C#CC#Cc2ccc3c(c2)-c2nc-3nc3[nH]c(nc4nc(nc5[nH]c(n2)c2ccc(S(=O)(=O)[O-])cc52)-c2ccc(S(=O)(=O)[O-])cc2-4)c2ccc(S(=O)(=O)[O-])cc32)cc1.[Na+].[Na+].[Na+].[Zn]`, for which the LD90 turned out to be 5.3 J cm**-2 in the assay on EMT6 [4] and 10.4 J cm**-2 in the assay with EMT6 [5]. Also, in assay [3], the relative binding affinity (RBA) worked out at 1.22.

With `C[C@]12CC[C@@H]3c4ccc(O)cc4CC[C@H]3[C@@H]1CC[C@]2(O)CCCCC#CC#Cc1ccc2c(c1)-c1nc-2nc2[nH]c(nc3nc(nc4[nH]c(n1)c1ccc(S(=O)(=O)[O-])cc41)-c1ccc(S(=O)(=O)[O-])cc1-3)c1ccc(S(=O)(=O)[O-])cc21.[Na+].[Na+].[Na+].[Zn]`, the LD90 with EMT6 [4] is given as 2.9 J cm**-2; in the assay on EMT6 [5], 7.3 J cm**-2. The relative binding affinity (RBA) in assay [3] was determined as 1.26.

As to `CCCCc1ccc2c(c1)-c1nc-2nc2[nH]c(nc3nc(nc4[nH]c(n1)c1ccc(CCCC)cc41)-c1ccc(C#CC#Cc4cccc([C@@]5(O)CC[C@H]6[C@@H]7CCc8cc(O)ccc8[C@H]7CC[C@@]65C)c4)cc1-3)c1ccc(CCCC)cc21`, the LD90 result in the assay with EMT6 [1] and in the assay on EMT6 [2] was “inactive” in each case. Besides, the relative binding affinity (RBA) in assay [3] is 8.54.

The values above are taken from ChEMBL document CHEMBL1136680, “Synthesis and biological activities of phthalocyanine-estradiol conjugates” (2003).
